Values joined by “and” are separate entries in the source; they are usually repeats but may differ in a detail not shown here. Equal entries are not always repeated.
Legend:
[1] = tested on: HeLa Tet-On cells transfected with vector alone; experiment: proliferation and cell cycle of vector-transfected HeLa Tet-On cells with doxycycline; type: cell-based, human
Source text: Using customized double stranded adapters, full length human haspin cDNA (amino acids 1-798, Higgins, Gene 267:55-69 (2001)) was ligated into the Hind III-Xba I sites of the expression vector pcDNA3 (Invitrogen) and, to generate myc-tagged haspin, cDNA encoding residues 2-798 was inserted into the pcDNA3-derived plasmid pCANmyc1. To generate a plasmid encoding EGFP-haspin, haspin cDNA encoding amino acids 2-798 is inserted into the Sac II-BamH I sites of pEGFP-C1 (Clontech). To generate inducible vectors, cDNA encoding myc-haspin from pCANmyc-haspin (Hind III-EcoR V) is blunt-ended and inserted into the Pvu II site of pTRE2/pur (BD Clontech) and Nhe I-Xba I fragments encoding EGFP-haspin or EGFP alone from pEGFP-haspin or pEGFP-C1, respectively are ligated into the Nhe I site of pTRE2pur. All constructs are verified by DNA sequencing. Transient transfection is carried out using Lipofectamine 2000 (Invitrogen). Stable transfection of HeLa Tet-On (BD Clontech) cells is carried out using Lipofectin with Plus Reagent (Invitrogen). After 24 h, cells are transferred to 96-well plates and incubated in medium containing 1 μg/ml puromycin and 100 μg/ml G418. Clones expressing myc-haspin or EGFP-haspin in the presence, but not absence, of 1 μg/ml doxycycline are selected by anti-myc immunoblotting or flow cytometric analysis of EGFP fluorescence respectively. […]

6His-haspin kinase = molecular target: T1, 6His-haspin kinase (Homo sapiens, UniProt Q8TF76); experiment: ELISA-based microtiter plate haspin kinase assay; type: biochemical; conditions: 100 μM ATP, 10 mM MnCl2, 20 min 37° C.
T1 construct: insertion of a PCR product encoding residues 471-798 of human haspin into the PshA I site of the vector pET45b(+); 6His (N); made in house; host or cells: E. coli BL21
T1 sequence (Q8TF76 471-798): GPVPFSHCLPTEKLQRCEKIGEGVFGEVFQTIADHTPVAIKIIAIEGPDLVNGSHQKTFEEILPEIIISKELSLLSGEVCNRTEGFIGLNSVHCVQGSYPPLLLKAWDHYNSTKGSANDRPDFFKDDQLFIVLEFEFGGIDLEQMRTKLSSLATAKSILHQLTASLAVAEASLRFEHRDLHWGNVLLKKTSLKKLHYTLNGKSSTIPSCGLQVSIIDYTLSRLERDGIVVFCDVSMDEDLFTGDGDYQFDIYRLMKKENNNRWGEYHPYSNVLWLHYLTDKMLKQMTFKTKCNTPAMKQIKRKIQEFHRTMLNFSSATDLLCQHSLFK
Procedure: In these assays, H3-GST substrate protein (or H3-T3A-GST non-phosphorylable control) was immobilized on 96-well microtiter plates by incubation in PBS overnight at 4° C. Following washing and blocking with 1% BSA/TBS, 6His-haspin kinase was added to the wells in 50 μl total volume of Hepes-buffered saline (HBS)/100 μM ATP/10 mM MnCl2 and allowed to phosphorylate the immobilized substrate for 20 min at 37° C. After washing thrice with TBS/0.1% Tween-20, affinity-purified polyclonal anti-phospho-histone H3 (Thr-3) antibodies were added for 1 h at room temperature. After washing, antibody binding (i.e. phosphorylation) was detected using 1/2000 dilution of donkey anti-rabbit IgG-Horse Radish […] (HRP) conjugate (Jackson) followed by tetramethylbenzidine (TMB) color development (BD Biosciences). Measurement of A450 nm-A570 nm (to correct for well-to-well variation in background absorbance) was carried out after addition of H2SO4.

| Molecule | cell number relative to uninduced control ([1]; after 8 days, two experiments, vector alone) | cell cycle progression ([1]; vector-transfected cells) | haspin kinase activity (phosphorylation of immobilized H3-GST) (6His-haspin kinase) |
| --- | --- | --- | --- |
| C[C@H]1c2cccc(O)c2C(=O)C2=C(O)[C@]3(O)C(=O)C(C(N)=O)=C(O)[C@@H](N(C)C)[C@@H]3[C@@H](O)[C@@H]21 [Doxycycline, doxycycline] | 104% and 115% | no effect | – |
| ARTKQTAR [H3(1-8)] | – | – | inhibition |
| O=C(O)CN(CCN(CC(=O)O)CC(=O)O)CC(=O)O [EDTA] | – | – | inhibition |

— patent publication US7655431B2, “Compositions and methods based upon the kinase haspin” (The Brigham and Women's Hospital, Inc., priority 2004, dated 2010)
